Patent publication US9420813B2, “Sweetener” (AJINOMOTO CO., INC., priority 2007, dated 2016)

Key:
[1] = Quantitative sensory evaluation, improvement of body taste and bitterness of combined high-intensity sweeteners (Examples 2 and 4); parameters: species or system human; details: for Bitterness: control 0, <0 improved; for Bitterness / Body taste: n=12; for Body taste: control 0, >0 improved
Method: The quantitative sensory evaluation test was performed as follows. As for a combination standard solution of each sweeteners, the following compounds were used. The following standard solutions have been adjusted so they each have almost the same degree of sweetness.
ii) APM (0.02 g/dl)+Ace-K (0.005 g/dl) [APM:Ace-K=8:2 as a ratio of degrees of sweetness]
iii) Sucralose (0.0058 g/dl)+Ace-K (0.0075 g/dl) [sucralose:Ace-K=7:3 as a ratio of degrees of sweetness]
iv) APM (0.0125 g/dl)+sucralose (0.0042 g/dl) [APM:sucralose=1:1 as a ratio of degrees of sweetness]
v) APM (0.0125 g/dl)+sucralose (0.0021 g/dl)+Ace-K (0.0063 g/dl) [APM:sucralose:Ace-K=2:1:1 as a ratio of degrees of sweetness]
To distilled water containing each of the sweeteners, γ-Glu-Cys-Gly (glutathione), γ-Glu-Val-Gly or γ-Glu-Abu-Gly was added and mixed at concentrations of 0.0001 to 1 g/dl, and then the degree of the improvement of the body taste and the improvement of the bitterness on the sweet taste was measured. The addition effect of the peptides on each of the high-intensity sweeteners was evaluated with reference to sucrose.
When a mixture is more acidic than the standard control solution, the pH of the mixture was adjusted with NaOH to achieve a range of pH±0.2 with respect to the pH of the standard solution before use.
The sensory evaluation for the improvement of the body taste was performed with n=12 on the basis of the following criteria: a control (obtained by adding distilled water only and without adding glutathione and/or the peptide) was defined as 0, and by using the control as a standard, the follow were defined: weak: −2 points; slightly weak: −1 point; slightly strong: 1 point, and strong: 2 points. A higher score than 0 means that the sample has a body taste-improving effect.
(§1) Alternatively, the sensory evaluation for the improvement of the bitterness was performed with n=12 on the basis of the following criteria: a control (obtained by adding distilled water only and without adding glutathione and/or the peptide) was defined as 0, and by using the control as a standard, the following were defined: weak: −2 points; slightly weak: −1 point; slightly strong: 1 point, and strong: 2 points. A lower score than 0 means that the sample improves the bitterness.
The quantitative sensory evaluation test was performed as follows. As for combination standard solution of each sweeteners, the following compound was used. The following standard solutions have been adjusted so they each have almost the same degree of sweetness.
To distilled water containing each sweetener mentioned above, γ-Glu-Val-Gly or cinacalcet was added and mixed at concentrations of 0.0001 to 1 g/dl, and then each degree of the improvement of the body taste and the improvement of the bitterness on the sweet taste was measured. The addition effect of the sample on each of the high intensity sweeteners was evaluated with reference to sucrose.
(§2) When a mixture is more acidic than the standard control solution, the pH of the sample was adjusted with NaOH to achieve a range of pH±0.2 with respect to the pH of the standard solution before use.
The sensory evaluation for the improvement of the body taste was performed with n=12 on the basis of the following criteria: a control (obtained with adding distilled water only and without adding the sample) was defined as 0, and by using the control as a standard, the following were defined: weak: −2 points; slightly weak: −1 point; slightly strong: 1 point, and strong: 2 points. A higher score than 0 means that the sample improves the body taste.
as §1, with “(obtained with” for “(obtained by”, “adding” for “adding glutathione and/or”, “the sample)” for “the peptide)”, “points. […]” for “points. A lower score than 0 means that the sample improves the bitterness.”

[2] = Quantitative sensory evaluation, body taste and bitterness in drinkable yogurt containing high intensity sweetener (Example 5); parameters: species or system human; details: for Bitterness / Body taste: drinkable yogurt with APM 0.025 g/dl, n=12; for Bitterness: control 0, <0 improved; for Body taste: control 0, >0 improved
Method: The quantitative sensory evaluation test was performed as follows. As for a drinkable yogurt standard solution, the following compounds were used. The following standard solutions have been adjusted so they each have almost the same degree of sweetness.
To a drinkable yogurt containing each of the sweeteners, γ-Glu-Val-Gly or cinacalcet was added and mixed at concentrations 0.0001 to 1 g/dl, and then each degree of the improvement of the body taste and the improvement of the bitterness on the sweet taste was measured.
as §2
The sensory evaluation for the improvement of the body taste was performed with n=12 on the basis of the following criteria: a control (obtained with adding distilled water only and without adding the sample) was defined as 0, and by using the control as a standard, the following were defined: weak: −2 points; slightly weak: −1 point; slightly strong: 1 point, and strong: 2 points. A higher score than 0 means that the sample has a body taste-improving effect.
as §1, with “On the other hand, the” for “Alternatively, the”, “(obtained with” for “(obtained by”, “adding” for “adding glutathione and/or”, “the sample)” for “the peptide)”

[3] = APM 0.0125 + sucralose 0.0021 + Ace-K 0.0063 g/dl (2:1:1), sample 0.0001 g/dl
[4] = APM 0.0125 + sucralose 0.0021 + Ace-K 0.0063 g/dl (2:1:1), sample 0.001 g/dl
[5] = APM 0.0125 g/dl + sucralose 0.0042 g/dl (1:1), sample 0.0001 g/dl
[6] = APM 0.0125 g/dl + sucralose 0.0042 g/dl (1:1), sample 0.001 g/dl
[7] = APM 0.02 g/dl + Ace-K 0.005 g/dl (8:2), sample 0.0001 g/dl
[8] = APM 0.02 g/dl + Ace-K 0.005 g/dl (8:2), sample 0.001 g/dl
[9] = sucralose 0.0058 g/dl + Ace-K 0.0075 g/dl (7:3), sample 0.0001 g/dl
[10] = sucralose 0.0058 g/dl + Ace-K 0.0075 g/dl (7:3), sample 0.001 g/dl

In the case of `C[C@@H](NCCCc1cccc(C(F)(F)F)c1)c1cccc2ccccc12` [Cinacalcet, (R)—N-(3-(3-(trifluoromethyl)phenyl)propyl)-1-(1-naphthyl)ethylamine, reference compound], the Bitterness [1, 3] is reported as −0.2 points, the Body taste [1, 3] is reported as 0.5 points and the Bitterness [1, 4] is reported as −0.4 points. It also gave a Body taste [1, 4] of 1.1 points, a Bitterness [1, 5] of −0.2 points and a Body taste [1, 5] of 0.5 points. The Bitterness [1, 6] was −0.2 points, the Body taste [1, 6] was 1.1 points and the Bitterness [1, 7] was −0.1 points. It also gave a Body taste [1, 7] of 0.5 points, a Bitterness [1, 8] of −0.3 points and a Body taste [1, 8] of 1.1 points. The Taste profile ([1]; APM:Ace-K = 8:2, sample 0.0001 g/dl) was “Sweet taste with growth is enhanced in middle”, the Taste profile ([1]; APM:Ace-K = 8:2, sample 0.001 g/dl) was “Sweet taste with growth is enhanced in middle” and the Taste profile ([1]; APM:sucralose:Ace-K = 2:1:1, sample 0.0001 g/dl) was “Harmony and richness are present in middle”. For the same molecule, the Taste profile ([1]; APM:sucralose:Ace-K = 2:1:1, sample 0.001 g/dl) was “Harmony and richness are present in middle”, the “improvement of the body taste (conclusion in words)” value ([1]; combined sweetener solutions, Tables 9 to 12 and 16 to 19) was “improves the body taste at almost the same concentration” and the Bitterness [1, 9] was −0.1 points. For the same molecule, the Body taste [1, 9] was 0.8 points, the Bitterness [1, 10] was −0.3 points and the Body taste [1, 10] was 1.5 points. For the same molecule, the Bitterness ([2]; sample 0.0001 g/dl) was −0.2 points, the Body taste ([2]; sample 0.0001 g/dl) was 0.5 points and the Bitterness ([2]; sample 0.001 g/dl) was −0.1 points. For the same molecule, the Body taste ([2]; sample 0.001 g/dl) was 1.6 points and the “improvement of the body taste (conclusion in words)” value ([2]; drinkable yogurt with APM, Table 20) was “improves the body taste at almost the same concentration”.
